From ChEMBL document CHEMBL4622979, “Non-rigid Diarylmethyl Analogs of Baloxavir as Cap-Dependent Endonuclease Inhibitors of Influenza Viruses” (J Med Chem, 2020)

Columns and labels:
[1] = Cytotoxicity against human PBMC cells assessed as reduction in cell viability by ATP bioluminescence assay; type: cell-based
[2] = Selectivity ratio of CC50 for human HepG2 cells assessed as reduction in cell viability measured after 24 hrs in presence of glucose to CC50 for human HepG2 cells assessed as reduction in cell viability measured after 24 hrs in presence of galactose; type: cell-based
[3] = Acute toxicity in CD1 mouse assessed as effect on kidney at 2000 mg/kg, po measured after 2 weeks by macroscopic analysis; type: organism-based; settings: in vivo, 336 h
[4] = Oral bioavailability in CD1 mouse assessed as (12aR)-12-(Diphenylmethyl)-7-hydroxy-3,4,12,12a-tetrahydro-1H-[1,4]oxazino[3,4-c]pyrido[2,1-f ][1,2,4]triazine-6,8-dione level at 15 mg/kg administered as single dose by LC-MS/MS analysis; type: ADME, organism-based; settings: in vivo
[5] = AUClast in CD1 mouse plasma assessed as (12aR)-12-(Diphenylmethyl)-7-hydroxy-3,4,12,12a-tetrahydro-1H-[1,4]oxazino[3,4-c]pyrido[2,1-f ][1,2,4]triazine-6,8-dione level at 15 mg/kg, po administered as single dose by LC-MS/MS analysis; type: ADME, organism-based; set-up: dose 15 mg/kg, time 0 - last, route oral; settings: in vivo
[6] = Half life in CD1 mouse plasma assessed as (12aR)-12-(Diphenylmethyl)-7-hydroxy-3,4,12,12a-tetrahydro-1H-[1,4]oxazino[3,4-c]pyrido[2,1-f ][1,2,4]triazine-6,8-dione level at 15 mg/kg, po administered as single dose measured up to 24 hrs by LC-MS/MS analysis; type: ADME, organism-based; settings: in vivo
[7] = MRTlast in CD1 mouse blood assessed as (12aR)-12-(Diphenylmethyl)-7-hydroxy-3,4,12,12a-tetrahydro-1H-[1,4]oxazino[3,4-c]pyrido[2,1-f ][1,2,4]triazine-6,8-dione level at 15 mg/kg, po administered as single dose measured up to 24 hrs by LC-MS/MS analysis; type: ADME, organism-based; settings: in vivo
[8] = Ratio of AUClast in CD1 mouse liver to plasma assessed as (12aR)-12-(Diphenylmethyl)-7-hydroxy-3,4,12,12a-tetrahydro-1H-[1,4]oxazino[3,4-c]pyrido[2,1-f ][1,2,4]triazine-6,8-dione level at 15 mg/kg, po administered as single dose measured up to 24 hrs by LC-MS/MS analysis; type: ADME, organism-based; settings: other tissue
[9] = MRTlast in CD1 mouse lung assessed as (12aR)-12-(Diphenylmethyl)-7-hydroxy-3,4,12,12a-tetrahydro-1H-[1,4]oxazino[3,4-c]pyrido[2,1-f ][1,2,4]triazine-6,8-dione level at 15 mg/kg, po administered as single dose measured up to 24 hrs by LC-MS/MS analysis; type: ADME, organism-based; settings: in vivo
[10] = Half life in CD1 mouse trachea assessed as (12aR)-12-(Diphenylmethyl)-7-hydroxy-3,4,12,12a-tetrahydro-1H-[1,4]oxazino[3,4-c]pyrido[2,1-f ][1,2,4]triazine-6,8-dione level at 15 mg/kg, po administered as single dose measured up to 24 hrs by LC-MS/MS analysis; type: ADME, organism-based; settings: in vivo
[11] = AUCinfinity in CD1 mouse trachea assessed as (12aR)-12-(Diphenylmethyl)-7-hydroxy-3,4,12,12a-tetrahydro-1H-[1,4]oxazino[3,4-c]pyrido[2,1-f ][1,2,4]triazine-6,8-dione level at 15 mg/kg, po administered as single dose measured up to 24 hrs by LC-MS/MS analysis; type: ADME, organism-based; set-up: dose 15 mg/kg, route oral, time infinity; settings: in vivo
[12] = Ratio of AUClast in CD1 mouse small intestine to plasma assessed as (12aR)-12-(Diphenylmethyl)-7-hydroxy-3,4,12,12a-tetrahydro-1H-[1,4]oxazino[3,4-c]pyrido[2,1-f ][1,2,4]triazine-6,8-dione level at 15 mg/kg, po administered as single dose measured up to 24 hrs by LC-MS/MS analysis; type: ADME, organism-based; settings: other tissue
[13] = Elimination rate constant in CD1 mouse spleen assessed as (12aR)-12-(Diphenylmethyl)-7-hydroxy-3,4,12,12a-tetrahydro-1H-[1,4]oxazino[3,4-c]pyrido[2,1-f ][1,2,4]triazine-6,8-dione level at 15 mg/kg, po administered as single dose measured up to 24 hrs by LC-MS/MS analysis; type: ADME, organism-based; settings: in vivo
[14] = Cmax in CD1 mouse muscle assessed as (12aR)-12-(Diphenylmethyl)-7-hydroxy-3,4,12,12a-tetrahydro-1H-[1,4]oxazino[3,4-c]pyrido[2,1-f ][1,2,4]triazine-6,8-dione level at 15 mg/kg, po administered as single dose measured up to 24 hrs by LC-MS/MS analysis; type: ADME, organism-based, Muscle tissue; set-up: dose 15 mg/kg, route oral; settings: in vivo
[15] = Ratio of free drug level in CD1 mouse blood assessed as (12aR)-12-(Diphenylmethyl)-7-hydroxy-3,4,12,12a-tetrahydro-1H-[1,4]oxazino[3,4-c]pyrido[2,1-f ][1,2,4]triazine-6,8-dione level at 20 mg/kg, po to EC50 for antiviral activity against Influenza A/California/04/2009 (H1N1)pdm09 infected in MDCK cells; type: ADME, organism-based; settings: in vivo
[16] = AUClast in CD1 mouse plasma assessed as baloxavir acid level at 15 mg/kg, po administered as single dose by LC-MS/MS analysis; type: ADME, organism-based; set-up: dose 15 mg/kg, route oral, time 0 - last; settings: in vivo
[17] = MRTlast in CD1 mouse blood assessed as baloxavir acid level at 15 mg/kg, po administered as single dose measured up to 24 hrs by LC-MS/MS analysis; type: ADME, organism-based; settings: in vivo
[18] = Half life in CD1 mouse kidney assessed as baloxavir acid level at 15 mg/kg, po administered as single dose measured up to 24 hrs by LC-MS/MS analysis; type: ADME, organism-based; settings: in vivo
[19] = Cmax in CD1 mouse lung assessed as baloxavir acid level at 15 mg/kg, po administered as single dose measured up to 24 hrs by LC-MS/MS analysis; type: ADME, organism-based; set-up: dose 15 mg/kg, route oral; settings: in vivo
[20] = AUClast in CD1 mouse lung assessed as baloxavir acid level at 15 mg/kg, po administered as single dose measured up to 24 hrs by LC-MS/MS analysis; type: ADME, organism-based; settings: in vivo
[21] = AUCinfinity in CD1 mouse lung assessed as baloxavir acid level at 15 mg/kg, po administered as single dose measured up to 24 hrs by LC-MS/MS analysis; type: ADME, organism-based; set-up: dose 15 mg/kg, route oral, time infinity; settings: in vivo
[22] = MRTlast in CD1 mouse lung assessed as baloxavir acid level at 15 mg/kg, po administered as single dose measured up to 24 hrs by LC-MS/MS analysis; type: ADME, organism-based; settings: in vivo
[23] = MRTlast in CD1 mouse brain assessed as baloxavir acid level at 15 mg/kg, po administered as single dose measured up to 24 hrs by LC-MS/MS analysis; type: ADME, organism-based; settings: in vivo
[24] = AUClast in CD1 mouse spleen assessed as baloxavir acid level at 15 mg/kg, po administered as single dose measured up to 24 hrs by LC-MS/MS analysis; type: ADME, organism-based; settings: in vivo
[25] = MRTlast in CD1 mouse muscle assessed as baloxavir acid level at 15 mg/kg, po administered as single dose measured up to 24 hrs by LC-MS/MS analysis; type: ADME, organism-based, Muscle tissue; settings: in vivo
[26] = Ratio of AUClast in CD1 mouse muscle to plasma assessed as baloxavir acid level at 15 mg/kg, po administered as single dose measured up to 24 hrs by LC-MS/MS analysis; type: ADME, organism-based; settings: other tissue

Which CC50 [1] does the source give for `COC(=O)OCOc1c2n(ccc1=O)N(C(c1ccccc1)c1ccccc1)[C@@H]1COCCN1C2=O` here?
Its CC50 is 100 µM.

What about the selectivity ratio at 24 h [2] of the same compound?
The selectivity ratio at 24 h was 0.9.

And the Activity [3]?
Its Activity is “Non-Toxic”.

What about the F [4] of the same compound?
Its F is 62.1%.

What about the AUClast [5] of the same compound?
The AUClast was 3935 ng·h/mL.

What about the t1/2 [6] of the same compound?
Its t1/2 is 1.58 h.

What about the MRTlast [7] of the same compound?
Its MRTlast is 1.78 h.

And the “Ratio AUC” value [8]?
The value was 10.6.

What about the MRTlast [9] of the same compound?
The MRTlast was 1.7 h.

What about the t1/2 [10] of the same compound?
The t1/2 was 4.91 h.

And the AUC [11]?
The AUC was 10875 ng·h/g.

And the “Ratio AUC” value [12]?
The value was 13.3.

What about the Kel [13] of the same compound?
The Kel was 0.39 h⁻¹.

What about the Cmax [14] of the same compound?
The Cmax was 2005 ng/g.

What about the Ratio [15] of the same compound?
The Ratio was 18.

Which AUClast [16] does the source give for `COC(=O)OCOc1c2n(ccc1=O)N([C@@H]1c3ccccc3SCc3c1ccc(F)c3F)[C@@H]1COCCN1C2=O` [BALOXAVIR MARBOXIL] here?
The AUClast was 715 ng·h/mL.

And the MRTlast [17]?
Its MRTlast is 3.93 h.

What about the t1/2 [18] of the same compound?
Its t1/2 is 3.26 h.

What about the Cmax [19] of the same compound?
The Cmax was 1188 ng/g.

And the AUClast [20]?
The AUClast was 8959 ng·h/g.

What about the AUC [21] of the same compound?
The AUC was 9025 ng·h/g.

What about the MRTlast [22] of the same compound?
The MRTlast was 4.84 h.

And the MRTlast [23]?
Its MRTlast is 8.42 h.

And the AUClast [24]?
The AUClast was 3611 ng·h/g.

What about the MRTlast [25] of the same compound?
The MRTlast was 3.35 h.

And the “Ratio AUC” value [26]?
The value was 10.4.
